Source: PubChem BioAssay AID248 (DTP/NCI, 2004)
“And” between values parts separate entries of the source, which are not always exact repeats. Identical values can stand only once. Inconclusive results and toxic doses are left out. No stated cut-off is given here; in the data, active means T/C of 150% or more; inactive means T/C below 125%.

System: L1210 leukemia ip in BDF1 mice, survival T/C
Experiment: NCI In Vivo Anticancer Drug Screen. Data for tumor model L1210 Leukemia (intraperitoneal) in B6D2F1 (BDF1) mice
Settings: endpoint: mean survival time, higher = longer survival
Procedure, shortened: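 Each compound was tested against a transplantable tumor grown in mice. The endpoint was survival, with treated animals benchmarked against vehicle controls as a simple ratio.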

[1] = dose: 100.0 mg/kg/injection, schedule: Q01DX009 (ip), vehicle: saline
[2] = dose: 100.0 mg/kg/injection, schedule: Q04DX003 (ip), vehicle: saline
[3] = dose: 200.0 mg/kg/injection, schedule: Q04DX003 (ip), vehicle: saline
[4] = dose: 100.0 mg/kg/injection, schedule: Q01DX001 (ip), vehicle: saline
[5] = dose: 200.0 mg/kg/injection, schedule: Q01DX001 (ip), vehicle: saline
[6] = dose: 400.0 mg/kg/injection, schedule: Q01DX001 (ip), vehicle: saline
[7] = dose: 100.0 mg/kg/injection, schedule: Q04DX003 (ip), vehicle: Klucel (hydroxypropylcellulose) (HPC)
[8] = dose: 100.0 mg/kg/injection, schedule: Q04DX003 (ip), vehicle: saline with Tween-80
[9] = dose: 200.0 mg/kg/injection, schedule: Q04DX003 (ip), vehicle: saline with Tween-80
[10] = dose: 400.0 mg/kg/injection, schedule: Q04DX003 (ip), vehicle: saline with Tween-80
[11] = dose: 100.0 mg/kg/injection, schedule: Q04DX002 (ip), vehicle: Klucel (hydroxypropylcellulose) (HPC)
[12] = dose: 200.0 mg/kg/injection, schedule: Q04DX002 (ip), vehicle: Klucel (hydroxypropylcellulose) (HPC)
[13] = dose: 400.0 mg/kg/injection, schedule: Q04DX002 (ip), vehicle: Klucel (hydroxypropylcellulose) (HPC)

Measured: T/C

CCOC(=O)NC(=S)[S][Sb]([S]C(=S)NC(=O)OCC)[S]c1nc2ccc(N=Nc3ccc(NS(=O)(=O)c4ccc(NC(=O)C(Sc5ncnc6nc[nH]c56)SC5N=C=Nc6nc[nH]c65)cc4)cc3)cc2s1 (stereo not given)
inactive: dose: 75.0 mg/kg/injection, schedule: Q04DX003 (ip), vehicle: saline 100 % of control | dose: 150.0 mg/kg/injection, schedule: Q04DX003 (ip), vehicle: saline 91 % of control | dose: 300.0 mg/kg/injection, schedule: Q04DX003 (ip), vehicle: saline 98 % of control

C=C(C)CN
inactive: dose: 50.0 mg/kg/injection, schedule: Q01DX009 (ip), vehicle: saline 109 % of control | [1] 117 % of control | [2] 93 % of control | [3] 106 % of control

Nc1nc(N)c(-c2ccc(Cl)cc2)c(COc2cccc(NC(=O)c3ccc([N+](=O)[O-])cc3)c2)n1
inactive: dose: 100.0 mg/kg/injection, schedule: Q01DX001 (ip), vehicle: Klucel (hydroxypropylcellulose) (HPC) 104 % of control | dose: 200.0 mg/kg/injection, schedule: Q01DX001 (ip), vehicle: Klucel (hydroxypropylcellulose) (HPC) 97 % of control | dose: 400.0 mg/kg/injection, schedule: Q01DX001 (ip), vehicle: Klucel (hydroxypropylcellulose) (HPC) 91 % of control

CCN(CC)CC(=O)NCC(CC)(CCN(C)C)c1cccc2ccccc12 (stereo not given)
inactive: [1] 105 % of control | [2] 102 % of control | dose: 200.0 mg/kg/injection, schedule: Q01DX009 (ip), vehicle: saline 97 % of control | [3] 100 % of control

CN/N=C/c1[nH]c(=O)[nH]c(=O)c1C
inactive: [4] 93 % of control | [5] 96 % of control | [6] 104 % of control

Cc1ccc2c(c1)c(N=NC(N)=S)c(O)n2C1OC(CO)C(O)C(O)C1O (stereo not given)
inactive: dose: 50.0 mg/kg/injection, schedule: Q01DX005 (ip), vehicle: saline 94 % of control | dose: 100.0 mg/kg/injection, schedule: Q01DX005 (ip), vehicle: saline 91 % of control | dose: 200.0 mg/kg/injection, schedule: Q01DX005 (ip), vehicle: saline 94 % of control

Cc1ccc(N2CCN(CCCN3CCN(c4ccc(Cl)cc4)CC3)CC2)cc1
inactive: dose: 8.0 mg/kg/injection, schedule: Q01DX Z (ip), vehicle: carboxymethylcellulose (CMC) 98 % of control | dose: 16.0 mg/kg/injection, schedule: Q01DX Z (ip), vehicle: carboxymethylcellulose (CMC) 95 % of control | [7] 109 % of control

NC(Cc1ccccc1)c1ccccc1 (stereo not given) (tested in a mixture with another compound)
inactive: [2] 89 % of control and 95 % of control | [3] 89 % of control

CC(=O)OC1=C(C)CCC1=O
inactive: [4] 89 % of control | [5] 95 % of control | [6] 89 % of control

O=C(Cc1ccc2c(c1)OCO2)c1cn(C(=O)Cc2ccc3c(c2)OCO3)c2ccccc12
inactive: dose: 50.0 mg/kg/injection, schedule: Q01DX001 (ip), vehicle: saline 108 % of control | [4] 102 % of control | [5] 93 % of control | [6] 96 % of control

O=C(CCCCCCCCC(=O)OO)OO (tested in a mixture with another compound)
inactive: [8] 98 % of control | [9] 92 % of control | [10] 90 % of control

COc1ccccc1/C=C/[N+](=O)[O-]
inactive: dose: 50.0 mg/kg/injection, schedule: Q04DX003 (ip), vehicle: Klucel (hydroxypropylcellulose) (HPC) 95 % of control | [7] 101 % of control

O=C(CI)NCc1cn(C2CC(O)C(CO)O2)c(=O)[nH]c1=O (stereo not given)
inactive: dose: 25.0 mg/kg/injection, schedule: Q01DX005 (ip), vehicle: water 105 % of control | dose: 50.0 mg/kg/injection, schedule: Q01DX005 (ip), vehicle: water 116 % of control | dose: 100.0 mg/kg/injection, schedule: Q01DX005 (ip), vehicle: water 116 % of control

CCn1c(C)nc2cc(N=Cc3ccc(N(CCCl)CCCl)cc3F)ccc21
inactive: [11] 95 % of control | [12] 98 % of control | [13] 91 % of control

CCCC(C)c1c(N)nc(N)[nH]c1=O (stereo not given)
inactive: dose: 80.0 mg/kg/injection, schedule: Q01DX001 (ip), vehicle: Klucel (hydroxypropylcellulose) (HPC) 103 % of control | dose: 160.0 mg/kg/injection, schedule: Q01DX001 (ip), vehicle: Klucel (hydroxypropylcellulose) (HPC) 92 % of control | dose: 320.0 mg/kg/injection, schedule: Q01DX001 (ip), vehicle: Klucel (hydroxypropylcellulose) (HPC) 94 % of control

COc1ccc(-c2sc(/N=C/c3cc(Br)cc(Br)c3O)c(C#N)c2C)cc1OC
inactive: dose: 100.0 mg/kg/injection, schedule: Q01DX001 (ip), vehicle: saline with Tween-80 89 % of control | [8] 93 % of control | dose: 200.0 mg/kg/injection, schedule: Q01DX001 (ip), vehicle: saline with Tween-80 91 % of control | [9] 98 % of control and 90 % of control | [10] 90 % of control

CC(=S)SCC(C)C
inactive: dose: 50.0 mg/kg/injection, schedule: Q01DX001 (ip), vehicle: carboxymethylcellulose (CMC) 101 % of control | dose: 100.0 mg/kg/injection, schedule: Q01DX001 (ip), vehicle: carboxymethylcellulose (CMC) 101 % of control | dose: 200.0 mg/kg/injection, schedule: Q01DX001 (ip), vehicle: carboxymethylcellulose (CMC) 104 % of control | dose: 400.0 mg/kg/injection, schedule: Q01DX001 (ip), vehicle: carboxymethylcellulose (CMC) 93 % of control

CC1(C)NC(=S)NC1=S
inactive: dose: 100.0 mg/kg/injection, schedule: Q01DX009 (ip), vehicle: alcohol 103 % of control | [11] 89 % of control | dose: 200.0 mg/kg/injection, schedule: Q01DX009 (ip), vehicle: alcohol 101 % of control | [12] 89 % of control | [13] 96 % of control

COC1OC(CCl)C(Cl)CC1OC(C)=O (stereo not given)
inactive: [2] 95 % of control | [3] 90 % of control | dose: 400.0 mg/kg/injection, schedule: Q04DX003 (ip), vehicle: saline 98 % of control

C[N+](C)(C)Cc1ccccc1/C(=N\O)c1ccccc1
inactive: dose: 10.0 mg/kg/injection, schedule: Q01DX001 (ip), vehicle: carboxymethylcellulose (CMC) 96 % of control | dose: 20.0 mg/kg/injection, schedule: Q01DX001 (ip), vehicle: carboxymethylcellulose (CMC) 101 % of control
